According to patent US7951789B2 (priority 2006, dated 2011):
pEC50: −log10 of the molar value. Where “and” joins values, the source holds several entries; their conditions need not be identical. Identical values can stand only once. Like-named read-outs stand apart in the source and are kept apart here.

What was measured:
[1] = system: wild-type HBV (secreted virions); assay: Anti-HBV activity in HBV virions via endogenous polymerase assay (EPA); format: cell-based; settings: Hepatitis B virus, read-out: Virion EC50 (μM)
Procedure: (§1) Compounds were tested in an anti-HBV assay. Determination of anti-HBV activity in HBV virions and nucleocapsids via endoenous polymerase assays (EPA)
(§2) • 1. 12-well collagen-I coated plates were seeded with producer cells expressing wild-type HBV at a density of 0.5-1×10^6 cells per well in 2 ml growth/selection media. • 2. Drug stock solutions were made up freshly in 100% DMSO as 200× stocks. Five additional 4-fold dilutions were prepared from these 200× stock in 100% DMSO. For each experiment, 4 aliquots of each drug dilution series were stored at −20° C. until used. • 3. Once cells reached confluency (1 day after cells were seeded), drug treatment was initiated by adding 10 μl of drug dilution into 2 ml of fresh growth/selection media. […] The no-drug control wells received only 10 μl of DMSO in fresh media. • 4. Cells were treated every-other-day with 2 ml of fresh drug/medium for a total of 8 days. Cell lysates were then collected on day 10 and subjected to EPA analysis as described below. Preparation of Nucleocapsid-Containing Lysates for Epa Analysis • 1. Cells were grown for 3 to 4 days in 12-well collagen-I coated plates until confluent. • 2. Media was carefully aspirated and the cell monolayers were rinsed once with 1 ml of PBS. • 3. One ml of lysis buffer (50 mM Tris-HCl pH 7.5/150 mM NaCl/5 mM MgCl2/0.2% NP-40) was added to each well. Plates were stored on ice for 30 min to 4 h. • 4. Lysed cells were transferred to 1.5 ml-microfuge tubes. • 5. Lysates were clarified by spinning at 14,000 rpm for 5 min at room temperature. • 6. Clarified lysates were transferred to fresh tubes and immediately frozen on dry-ice, then stored at −80° C. until endogenous polymerase assays were performed as described below. Preparation of Secreted Virions from Supernatant for Epa Analysis • 1. Cells were grown for 3 to 4 days in 12-well collagen-I coated plates until confluent. • 2. Media was carefully aspirated and transferred to 1.5 ml-microfuge tubes. • 3. Supernatants were clarified by spinning at 14,000 rpm for 5 min at room temperature. • 4. Clarified supernatants were transferred to fresh tubes and immediately frozen on dry-ice, then stored at −80° C. until endogenous polymerase assays were performed essentially as described below. Endogenous Polymerase Assay (EPA) of Cell Lysates and Supernatants • 1. EPAs were performed essentially as described by Seifer et al (1998). Intracellular HBV nucleocapsids were immunoprecipitated from the cytoplasmic lysates overnight at 4° C. with a polyclonal rabbit anti-HBcAg antibody and immobilized on protein A sepharose CL-4B beads. Secreted virions were immunoprecipitated from clarified cell supernatants overnight at 4° C. with a monoclonal mouse anti-LS antibody (MA18/7) in the absence of detergent. • 2. Following 3 washes of the immobilized capsids or virions with 1 ml of EPA wash buffer (75 mM NH4Cl, 50 mM Tris-HCl pH 7.4, 1 mM EDTA), endogenous polymerase reactions were initiated by adding 50 μl of detergent-containing EPA cocktail (50 mM Tris-HCl pH7.4, 75 mM NH4Cl, 1 mM EDTA, 20 mM MgCl2, 0.1 mM β-ME, 0.5% NP-40, 100 μM cold dGTP, TTP, dCTP, and 50 nM ^33P-dATP) and incubated overnight at 37° C. The detergent is required to strip the outer envelope from immunoprecipitated virions as well as to enhance permeability of the nucleocapsids. • 3. Following digestion with 1 mg/ml of proteinase K for 1 h at 37° C., endogenously ^33P-labeled HBV DNA was liberated via phenol/chloroform extraction. • 4. The nucleic acids were precipitated with 1 volume of 5M NH4-acetate and 2.5 volumes of 100% EtOH, and then separated on a 1% native agarose gel in Tris-borate-EDTA buffer. • 5. Gels were blotted onto positively charged nylon membrane overnight at room temperature via capillary transfer in 0.4 N NaOH. • 6. Dried membranes were exposed to a Phosphorlmager screen (GE Healthcare) overnight at room temperature, then scanned (Storm 860, GE Healthcare) and quantitated with ImageQuant software (GE Healthcare). • 7. […]

[2] = system: wild-type HBV (intracellular nucleocapsids); assay: Anti-HBV activity in HBV nucleocapsids (RI) via endogenous polymerase assay (EPA); format: cell-based; settings: Hepatitis B virus; for pEC50: wild-type HBV producer cell line, intracellular nucleocapsids, EPA, read-out: RI EC50
Procedure: as §1, §2

[3] = system: HCV Conl subgenomic replicon (GS4.1 cells); assay: HCV replicon assay (NS4A ELISA, HCV ELISA 2); format: cell-based; settings: Hepatitis C virus; GS4.1 cells, 72 hours, NS4A ELISA; read-out: HCV ELISA 2 EC50
Procedure: (§3) Huh-7 cells containing HCV Conl subgenomic replicon (GS4.1 cells), (C. Seeger; Fox Chase University, Philadelphia, Pa., USA), are grown in Dulbecco's Modified Eagle Medium (DMEM) supplemented with 10% fetal bovine serum (FBS), 2 mM L-glutamine, 110 mg/L sodium pyruvate, 1×non-essential amino acids, 100 U/mL penicillin-streptomycin and 0.5 mg/mL G418 (Invitrogen). For dose-response testing, the cells are seeded in 96-well plates at 7.5×10^3 cells/well in a volume of 50 μL and incubated at 37° C./5% CO2. Three hours after plating, 50 μL of ten 2-fold serial dilutions of compounds (highest concentration, 75 μM) are added and cell cultures were incubated at 37° C./5% CO2 in the presence of 0.5% DMSO. Alternatively, compounds are tested at a single concentration of 15 μM. In all cases, Huh-7 cells lacking the HCV replicon served as negative control. The cells are incubated in the presence of compounds for 72 hours after which they were monitored for expression of the NS4A protein by enzyme-linked immunosorbent assay (ELISA). For this, the plates were then fixed for 1 min with 1:1 acetone:methanol, washed twice with phosphate-buffered saline (PBS), 0.1% Tween 20, blocked for 1 hour at room temperature with TNE buffer containing 10% FBS and then incubated for 2 h at 37° C. with the anti-NS4A mouse monoclonal antibody A-236 (ViroGen) diluted in the same buffer. After washing three times with PBS, 0.1% Tween 20, the cells are incubated 1 hour at 37° C. with anti-mouse immunoglobulin G-peroxidase conjugate in TNE, 10% FBS. After washing as described above, the reaction is developed with O-phenylenediamine (Zymed). The reaction is stopped after 30 minutes with […] and the absorbance is read at 492 nm using a Sunrise Tecan spectrophotometer. EC50 values are determined from the % inhibition versus concentration data using a sigmoidal non-linear regression analysis based on four parameters with Tecan Magellan software. […] For cytotoxicity evaluation, GS4.1 cells are treated with compounds as described above and cellular viability was monitored using a Cell Titer 96 AQueous One Solution Cell Proliferation Assay (Promega). CC50 values are determined from the % cytotoxicity versus concentration data with Tecan Magellan software as described above.

[4] = Cytotoxicity evaluation in GS4.1 cells (Cell Titer 96 AQueous One Solution); format: cell-based; settings: human, 72 hours
Procedure: as §3

[5] = In vivo studies in rat: distribution of A550 and LddATP in the liver; settings: male rats
Procedure: Distribution of NM-204 (the compound of Example 1 (Hydroxy-tBuSATE N-benzylphosphoramidate derivative of L-ddA) (A550) in the rat liver was evaluated following a single intravenous (I.V.) or oral administration of A550 (NM-204) at a dose of 20 (oral) or 10 (I.V.) mg/Kg body weight. The dose solutions were prepared on the same day prior to dose administration.
At the specified time point (1 and 3 hours for IV animals or 1, 3 and 8 hours for oral animals), each animal was euthanized by CO2 gas followed by exsanguination via the abdominal vein. Livers were collected immediately after sacrifice, flash frozen in liquid nitrogen, placed on dry ice, and later stored at −70° C., before being analyzed.
Control rat liver samples were taken from whole frozen livers (Bioreclamation, Inc. Hicksville, N.Y.) with the aid of a tissue coring utensil (Harris Unicore, 8.0 mm, VWR,). Each ˜0.1 g sample was placed in individual 2 mL poly vials with 0.940 mL of 80% MeOH/20% DIH2O and homogenates were prepared using a mechanical tissue disruptor (Tissue Master, Omni-International, Inc, Marietta Ga.). The vials received a 10 μl aliquot of a working stock solution and a 50 μl aliquot of the ISTD before vortexing for ˜30 sec. The mixtures were stored overnight at −20° C. and the next day were removed for 10 min of centrifugation in a benchtop centrifuge. Each supernatant was transferred to individual centrifugation filtration units (0.45 μm) and the resulting filtrates were transferred to HPLC vials for the LC/MS/MS analysis. The final concentrations of ddATP in the calibration standards was 1000, 500, 250, 125, 50, and 0 pmol/ml. Each calibration standard was directly injected in a 50 μL volume onto the ion-exchange column for analysis. Standard curve analysis of calibration standards from control liver extracts was conducted.
Analysis of ddATP was done by an ion-exchange chromatography method with on-line positive ionization ESI-MS/MS detection in multiple reaction monitoring (MRM) detection mode. […] This is equivalent to a range of […] per gram liver by the sample preparation employed. The HPLC MS MS conditions described in Example 5 were utilized.

[6] = IV dose 10 mg/kg, 1 hr, individual animals, 10 mg/kg
[7] = IV dose 10 mg/kg, 3 hrs, individual animals, 10 mg/kg
[8] = Oral dose 20 mg/kg, 1 hr, individual animals, 20 mg/kg
[9] = Oral dose 20 mg/kg, 3 hrs, individual animals, 20 mg/kg
[10] = Oral dose 20 mg/kg, 8 hrs, individual animals, 20 mg/kg

For `CC(C)NP(=O)(OCCSC(=O)C(C)(C)CO)OC[C@@H]1CC[C@H](n2cnc3c(N)ncnc32)O1` (some centres unmarked) [A348 (NM 48)], the EC50 [1] was < 1 µM.

For `CC(C)NP(=O)(OCCSC(=O)C(C)(CO)CO)OC[C@H]1CC[C@@H](n2cnc3c(N)ncnc32)O1` (some centres unmarked) [A361 (NM 55)], the EC50 [1] was > 10 µM and the pEC50 [2] was 5.00 to 6.00.

In the case of `CC(C)NP(=O)(OCCSC(=O)C(C)(CO)CO)OC[C@@H]1CC[C@H](n2cnc3c(N)ncnc32)O1` (some centres unmarked) [A362 (NM 77)], the EC50 [1] was 1 to 10 µM and the pEC50 [2] was 5.00 to 6.00.

For `CC(C)(CO)C(=O)SCCOP(=O)(NCc1ccccc1)OC[C@H]1CC[C@@H](n2cnc3c(N)ncnc32)O1` (some centres unmarked) [A550 (NM 204)], the EC50 [1] was < 1 µM and the pEC50 [2] was > 6.00.

`CC(C)N(C(C)C)P(=O)(OCCSC(=O)C(C)(C)CO)OC[C@@H]1CC[C@H](n2cnc3c(N)ncnc32)O1` (some centres unmarked) [A616 (NM 128)] showed an EC50 ([2]; read-out: RI EC50 (μM)) of 1 to 10 µM.

With `CC(C)(CO)C(=O)SCCOP(=O)(NCc1ccccc1)OC[C@H]1O[C@@H](n2cnc3c(Cl)ncnc32)[C@](C)(O)[C@@H]1O` (stereo partly drawn) [Example B396, Hydroxy-tBuSATE N-benzylphosphoramidate Derivative of 9-[2-C-methyl-β-ribofuranosyl]-6-chloropurine] the pEC50 [3] was > 6.00 and the CC50 [4] was ≤ 75 µM.

Compound `CC(C)NP(=O)(OCCSC(=O)C(C)(C)CO)OC[C@H]1CC[C@@H](n2cnc3c(N)ncnc32)O1` (some centres unmarked) [Example C791] has an EC50 [1] of 1 to 10 µM.

In the case of `C#C[C@@]1(F)[C@H](O)[C@@H](CO)O[C@H]1n1cnc2c(=O)[nH]c(N)nc21` [Example D961], the pEC50 [3] was < 5.00 and the CC50 [4] was > 75 µM.

With `C[C@@]1(O)[C@H](O)[C@@H](CO)O[C@H]1n1cc(F)c2c(N)ncnc21` [Example E810, 2′-C-methyl-7-deaza-7-fluoro-adenosine, reference compound] the pEC50 [3] was > 6.00 and the CC50 [4] was > 75 µM.

With `Cc1cn([C@@H]2CC(O)[C@H](CO)O2)c(=O)[nH]c1=O` (stereo partly drawn) [L-dT, Telbivudine, reference compound] the pEC50 [2] was > 6.00.

In the case of “Hydroxy-tBuSATE N-benzylphosphoramidate derivative of L-ddA [A550 (Ex 1)]”, the “Concentration Compound (A550) (Ex 1) in liver” value (from here on “Concentration Compound (A550)”) ([5]; IV dose 10 mg/kg, 1 hr, Mean) was 80.0 pmol/g liver, the “Concentration Compound (A550)” value [5, 6] was 65.8 pmol/g liver and 89.1 pmol/g liver and 85.1 pmol/g liver and the “Concentration ddA-TP in liver” value [5, 6] was 2025 pmol/g liver and 1930 pmol/g liver and 1355 pmol/g liver. For the same compound, the “Concentration ddA-TP in liver” value ([5]; IV dose 10 mg/kg, 1 hr, individual animals, hepatocellularity 114 × 10^6 cells per gram liver, 10 mg/kg) was 17.8 pmol/10^6 cells and 16.9 pmol/10^6 cells and 11.9 pmol/10^6 cells, the “Concentration Compound (A550)” value ([5]; IV dose 10 mg/kg, 3 hrs, Mean) was 27.9 pmol/g liver and the “Concentration Compound (A550)” value [5, 7] was 28.3 pmol/g liver and 26.0 pmol/g liver and 29.3 pmol/g liver. For the same compound, the “Concentration ddA-TP in liver” value [5, 7] was 1345 pmol/g liver and 11.8 pmol/10^6 cells and 1940 pmol/g liver and 17.0 pmol/10^6 cells and 2990 pmol/g liver and 26.2 pmol/10^6 cells, the “Concentration Compound (A550)” value ([5]; Oral dose 20 mg/kg, 1 hr, Mean) was 251 pmol/g liver and the “Concentration Compound (A550)” value [5, 8] was 411 pmol/g liver and 272 pmol/g liver and 70.2 pmol/g liver. For the same compound, the “Concentration ddA-TP in liver” value [5, 8] was 210 pmol/g liver and 1.8 pmol/10^6 cells and 575 pmol/g liver and 5.0 pmol/10^6 cells and 400 pmol/g liver and 3.5 pmol/10^6 cells, the “Concentration Compound (A550)” value ([5]; Oral dose 20 mg/kg, 3 hrs, Mean) was 204 pmol/g liver and the “Concentration Compound (A550)” value [5, 9] was 360 pmol/g liver and 92.1 pmol/g liver and 161 pmol/g liver. The “Concentration ddA-TP in liver” value [5, 9] was 200 pmol/g liver and 1.8 pmol/10^6 cells and 330 pmol/g liver and 2.9 pmol/10^6 cells and 405 pmol/g liver and 3.6 pmol/10^6 cells, the “Concentration Compound (A550)” value ([5]; Oral dose 20 mg/kg, 8 hrs, Mean) was 20.1 pmol/g liver and the “Concentration Compound (A550)” value [5, 10] was 16.4 pmol/g liver and 28 pmol/g liver and 16.2 pmol/g liver. For the same compound, the “Concentration ddA-TP in liver” value [5, 10] was 280 pmol/g liver and 2.5 pmol/10^6 cells and 805 pmol/g liver and 5.2 pmol/10^6 cells and 275 pmol/g liver and 2.4 pmol/10^6 cells.
